Assay results as given in ChEMBL document CHEMBL1156502, “Stabilized immune modulatory RNA compounds as agonists of Toll-like receptors 7 and 8” (Proc Natl Acad Sci U S A, 2007).
Active and inactive are the calls of the source. No cut-off for these calls is given here.

Experiments:
[1] = Stability in 1% human serum assessed as full length product after 10 mins; type: ADME, cell-free
[2] = biological target: T1, Toll-like receptor 7 (Homo sapiens) (UniProt Q9NYK1); assay: Activation of human TLR7 expressed in HEK293 cells assessed as increase in NF-kappaB activation at 100 ug/ml by SEAP assay; type: cell-based
T1 sequence (whole entry): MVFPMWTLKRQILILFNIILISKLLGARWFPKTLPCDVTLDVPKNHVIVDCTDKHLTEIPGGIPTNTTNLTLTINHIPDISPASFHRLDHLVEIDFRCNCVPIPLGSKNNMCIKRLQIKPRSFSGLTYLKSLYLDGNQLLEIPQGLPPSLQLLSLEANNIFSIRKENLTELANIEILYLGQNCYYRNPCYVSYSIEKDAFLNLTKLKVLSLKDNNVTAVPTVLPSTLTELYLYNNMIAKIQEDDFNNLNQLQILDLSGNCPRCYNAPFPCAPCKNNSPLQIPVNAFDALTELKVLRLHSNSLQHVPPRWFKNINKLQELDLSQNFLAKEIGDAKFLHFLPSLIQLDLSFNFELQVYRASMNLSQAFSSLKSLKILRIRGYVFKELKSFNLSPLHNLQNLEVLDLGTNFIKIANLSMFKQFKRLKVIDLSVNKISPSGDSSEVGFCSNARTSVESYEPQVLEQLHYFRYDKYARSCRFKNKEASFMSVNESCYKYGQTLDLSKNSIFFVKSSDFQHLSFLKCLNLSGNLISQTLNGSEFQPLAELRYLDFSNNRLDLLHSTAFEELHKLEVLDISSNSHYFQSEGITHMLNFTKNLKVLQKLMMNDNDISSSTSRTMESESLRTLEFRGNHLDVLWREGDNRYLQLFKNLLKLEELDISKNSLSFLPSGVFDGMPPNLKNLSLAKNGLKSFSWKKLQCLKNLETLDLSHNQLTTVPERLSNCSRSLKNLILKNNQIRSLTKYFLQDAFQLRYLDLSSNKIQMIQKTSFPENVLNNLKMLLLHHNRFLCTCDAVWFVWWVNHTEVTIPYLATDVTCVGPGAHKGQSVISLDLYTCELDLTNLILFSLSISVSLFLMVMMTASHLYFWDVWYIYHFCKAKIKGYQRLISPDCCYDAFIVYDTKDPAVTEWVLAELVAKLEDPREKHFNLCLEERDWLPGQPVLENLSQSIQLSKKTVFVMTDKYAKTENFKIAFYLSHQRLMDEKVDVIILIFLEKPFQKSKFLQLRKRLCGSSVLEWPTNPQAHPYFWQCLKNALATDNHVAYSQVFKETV

[3] = biological target: T2, Toll-like receptor 8 (Homo sapiens) (UniProt Q9NR97); assay: Activation of human TLR8 expressed in HEK293 cells assessed as increase in NF-kappaB activation at 100 ug/ml by SEAP assay; type: cell-based
T2 sequence (whole entry): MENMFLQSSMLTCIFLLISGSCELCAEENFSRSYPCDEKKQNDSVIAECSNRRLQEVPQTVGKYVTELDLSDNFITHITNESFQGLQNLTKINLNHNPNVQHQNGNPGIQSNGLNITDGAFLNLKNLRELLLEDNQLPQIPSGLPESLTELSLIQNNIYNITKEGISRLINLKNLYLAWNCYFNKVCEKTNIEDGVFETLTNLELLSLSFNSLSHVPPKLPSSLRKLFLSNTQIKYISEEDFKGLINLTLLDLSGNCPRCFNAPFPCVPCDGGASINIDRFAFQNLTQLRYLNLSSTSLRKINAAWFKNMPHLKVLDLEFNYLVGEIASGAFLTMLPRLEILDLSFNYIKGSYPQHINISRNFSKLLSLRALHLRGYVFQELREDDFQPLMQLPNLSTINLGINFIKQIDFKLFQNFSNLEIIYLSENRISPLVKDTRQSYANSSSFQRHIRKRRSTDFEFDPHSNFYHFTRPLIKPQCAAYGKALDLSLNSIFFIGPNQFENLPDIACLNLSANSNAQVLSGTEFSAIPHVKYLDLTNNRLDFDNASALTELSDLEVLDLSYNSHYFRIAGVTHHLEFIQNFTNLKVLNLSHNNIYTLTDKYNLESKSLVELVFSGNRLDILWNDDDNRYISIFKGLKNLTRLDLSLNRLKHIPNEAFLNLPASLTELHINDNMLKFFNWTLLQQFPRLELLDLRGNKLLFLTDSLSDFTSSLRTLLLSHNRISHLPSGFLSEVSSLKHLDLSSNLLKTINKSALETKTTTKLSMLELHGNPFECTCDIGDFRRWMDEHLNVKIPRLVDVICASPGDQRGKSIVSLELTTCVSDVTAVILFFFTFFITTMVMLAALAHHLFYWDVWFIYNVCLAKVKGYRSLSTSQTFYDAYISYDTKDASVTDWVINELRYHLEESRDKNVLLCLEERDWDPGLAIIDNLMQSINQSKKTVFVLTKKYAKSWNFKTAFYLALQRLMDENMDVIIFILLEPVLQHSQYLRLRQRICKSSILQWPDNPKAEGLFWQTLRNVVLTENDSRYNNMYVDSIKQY

remaining at 10 min ([1]; read-out: Stability) [%]	Activity [2]	remaining at 10 min ([1]; read-out: Activity) [%]	Activity [3]	SMILES
47	inactive	–	–	Nc1ccn([C@@H]2O[C@H](COP(O)(=S)O[C@H]3[C@@H](O)[C@H](n4ccc(=O)[nH]c4=O)O[C@@H]3COP(O)(=S)O[C@H]3[C@@H](O)[C@H](n4ccc(N)nc4=O)O[C@@H]3COP(O)(=S)O[C@H]3[C@@H](O)[C@H](n4cnc5c(N)ncnc54)O[C@@H]3COP(O)(=S)O[C@H]3[C@@H](O)[C@H](n4cnc5c(=O)[nH]c(N)nc54)O[C@@H]3COP(O)(=S)O[C@H]3[C@@H](O)[C@H](n4ccc(=O)[nH]c4=O)O[C@@H]3COP(O)(=S)O[C@H]3[C@@H](O)[C@H](n4cnc5c(=O)[nH]c(N)nc54)O[C@@H]3COP(O)(=S)O[C@H]3[C@@H](O)[C@H](n4ccc(=O)[nH]c4=O)O[C@@H]3COP(O)(=S)O[C@H]3[C@@H](O)[C@H](n4cnc5c(=O)[nH]c(N)nc54)O[C@@H]3COP(O)(=S)O[C@H]3[C@@H](O)[C@H](n4ccc(=O)[nH]c4=O)O[C@@H]3COP(O)(=S)O[C@H]3[C@@H](O)[C@H](n4ccc(=O)[nH]c4=O)O[C@@H]3COP(O)(=S)O[C@H]3[C@@H](O)[C@H](n4cnc5c(=O)[nH]c(N)nc54)O[C@@H]3COP(O)(=S)O[C@H]3[C@@H](O)[C@H](n4ccc(=O)[nH]c4=O)O[C@@H]3COP(O)(=S)O[C@H]3[C@@H](O)[C@H](n4ccc(N)nc4=O)O[C@@H]3COP(O)(=S)O[C@H]3[C@@H](O)[C@H](n4ccc(=O)[nH]c4=O)O[C@@H]3COP(O)(=S)O[C@H]3[C@@H](O)[C@H](n4cnc5c(=O)[nH]c(N)nc54)O[C@@H]3COP(O)(=S)O[C@H]3[C@@H](O)[C@H](n4ccc(N)nc4=O)O[C@@H]3COP(O)(=S)O[C@H]3[C@@H](O)[C@H](n4ccc(N)nc4=O)O[C@@H]3COP(O)(=S)O[C@H]3[C@@H](O)[C@H](n4ccc(N)nc4=O)O[C@@H]3COP(O)(=S)O[C@H]3[C@@H](O)[C@H](n4cnc5c(=O)[nH]c(N)nc54)O[C@@H]3CO)[C@@H](O)[C@H]2O)c(=O)n1 (stereo partly specified)
1	inactive	–	–	Nc1ccn([C@@H]2O[C@H](COP(O)(=S)O[C@H]3[C@@H](O)[C@H](n4ccc(N)nc4=O)O[C@@H]3COP(O)(=S)O[C@H]3[C@@H](O)[C@H](n4cnc5c(=O)[nH]c(N)nc54)O[C@@H]3COP(O)(=S)O[C@H]3[C@@H](O)[C@H](n4ccc(N)nc4=O)O[C@@H]3COP(O)(=S)O[C@H]3[C@@H](O)[C@H](n4ccc(=O)[nH]c4=O)O[C@@H]3COP(O)(=S)O[C@H]3[C@@H](O)[C@H](n4cnc5c(N)ncnc54)O[C@@H]3COP(O)(=S)O[C@H]3[C@@H](O)[C@H](n4ccc(N)nc4=O)O[C@@H]3COP(O)(=S)O[C@H]3[C@@H](O)[C@H](n4cnc5c(N)ncnc54)O[C@@H]3COP(O)(=S)O[C@H]3[C@@H](O)[C@H](n4cnc5c(=O)[nH]c(N)nc54)O[C@@H]3COP(O)(=S)O[C@H]3[C@@H](O)[C@H](n4cnc5c(N)ncnc54)O[C@@H]3COP(O)(=S)O[C@H]3[C@@H](O)[C@H](n4cnc5c(N)ncnc54)O[C@@H]3CO)[C@@H](OP(O)(=S)OC[C@H]3O[C@@H](n4ccc(=O)[nH]c4=O)[C@H](O)[C@@H]3OP(O)(=S)OC[C@H]3O[C@@H](n4cnc5c(=O)[nH]c(N)nc54)[C@H](O)[C@@H]3OP(O)(=S)OC[C@H]3O[C@@H](n4cnc5c(=O)[nH]c(N)nc54)[C@H](O)[C@@H]3OP(O)(=S)OC[C@H]3O[C@@H](n4ccc(=O)[nH]c4=O)[C@H](O)[C@@H]3OP(O)(=S)OC[C@H]3O[C@@H](n4ccc(=O)[nH]c4=O)[C@H](O)[C@@H]3OP(O)(=S)OC[C@H]3O[C@@H](n4cnc5c(N)ncnc54)[C@H](O)[C@@H]3O)[C@H]2O)c(=O)n1 (stereo partly specified)
–	–	79	inactive	Nc1ccn([C@@H]2O[C@H](CO)[C@@H](OP(O)(=S)OC[C@H]3O[C@@H](n4ccc(=O)[nH]c4=O)[C@H](O)[C@@H]3OP(O)(=S)OC[C@H]3O[C@@H](n4ccc(=O)[nH]c4=O)[C@H](O)[C@@H]3OP(O)(=S)OC[C@H]3O[C@@H](n4ccc(=O)[nH]c4=O)[C@H](O)[C@@H]3OP(O)(=S)OC[C@H]3O[C@@H](n4cnc5c(=O)[nH]c(N)nc54)[C@H](O)[C@@H]3OP(O)(=S)OC[C@H]3O[C@@H](n4cnc5c(=O)[nH]c(N)nc54)[C@H](O)[C@@H]3OP(O)(=S)OC[C@H]3O[C@@H](n4ccc(=O)[nH]c4=O)[C@H](O)[C@@H]3OP(O)(=S)OC[C@H]3O[C@@H](n4cnc5c(=O)[nH]c(N)nc54)[C@H](O)[C@@H]3OP(O)(=S)OC[C@H]3O[C@@H](n4ccc(=O)[nH]c4=O)[C@H](O)[C@@H]3OP(O)(=S)OC[C@H]3O[C@@H](n4cnc5c(=O)[nH]c(N)nc54)[C@H](O)[C@@H]3OP(O)(=S)OC[C@H]3O[C@@H](n4ccc(=O)[nH]c4=O)[C@H](O)[C@@H]3OP(O)(=S)OCC(O)COP(O)(=S)O[C@H]3[C@@H](O)[C@H](n4ccc(=O)[nH]c4=O)O[C@@H]3COP(O)(=S)O[C@H]3[C@@H](O)[C@H](n4cnc5c(=O)[nH]c(N)nc54)O[C@@H]3COP(O)(=S)O[C@H]3[C@@H](O)[C@H](n4ccc(=O)[nH]c4=O)O[C@@H]3COP(O)(=S)O[C@H]3[C@@H](O)[C@H](n4cnc5c(=O)[nH]c(N)nc54)O[C@@H]3COP(O)(=S)O[C@H]3[C@@H](O)[C@H](n4ccc(=O)[nH]c4=O)O[C@@H]3COP(O)(=S)O[C@H]3[C@@H](O)[C@H](n4cnc5c(=O)[nH]c(N)nc54)O[C@@H]3COP(O)(=S)O[C@H]3[C@@H](O)[C@H](n4cnc5c(=O)[nH]c(N)nc54)O[C@@H]3COP(O)(=S)O[C@H]3[C@@H](O)[C@H](n4ccc(=O)[nH]c4=O)O[C@@H]3COP(O)(=S)O[C@H]3[C@@H](O)[C@H](n4ccc(=O)[nH]c4=O)O[C@@H]3COP(O)(=S)O[C@H]3[C@@H](O)[C@H](n4ccc(=O)[nH]c4=O)O[C@@H]3COP(O)(=S)O[C@H]3[C@@H](O)[C@H](n4ccc(N)nc4=O)O[C@@H]3CO)[C@H]2O)c(=O)n1 (stereo partly specified)
